Assay results: article PMC10854695, “Using Flavonoid Substitution Status to Predict Anticancer Effects in Human Melanoma Cancers: An In Vitro Study” (Cancers, 2024)

Assays:
in vitro = details: human
[1] = Neutral red uptake (NRU) assay, normal cells; details: human, human skin fibroblasts (CCD25Sk)
Method: (§1) The NRU (neutral red uptake) was conducted as previously described by Szoka and co-workers, with some modifications [22]. Briefly, melanoma cells and fibroblasts were seeded in microplates at the density of 1 × 10^4 cells per well and allowed to adhere for 24 h. […] After treatment, the culture medium was replaced with a neutral red solution (40 µg/mL). An additional 2 h of incubation was performed. The neutral red solution was then removed and the neutral red accumulated in the cells was dissolved in 50% EtOH with 1% of the glacial acetic acid. The absorbance was estimated at 540 nm and IC50 values were calculated using GraphPad Prism software (GraphPad Software, San Diego, CA, USA).

C32 melanoma cells [2] = assay: MTT cell viability assay, C32; details: Homo sapiens, read-out: IC50, cytotoxic activity, MTT test;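 note: MTT added for 2 h, cells lysed in DMSO, absorbance read at 570 nm, compound vehicle kept at or below 0.1% DMSO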
A375 melanoma cells [3] = assay: Neutral red uptake (NRU) assay, A375; details: read-out: IC50, cytotoxic activity, NRU assay
C32 melanoma cells [4] = assay: Neutral red uptake (NRU) assay, C32
A375 melanoma cells [5] = assay: MTT cell viability assay, A375; details: Homo sapiens;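 note: Read-out is formazan absorbance at 570 nm after 2 h with MTT, with compounds in at most 0.1% v/v DMSO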
[6] = MTT cell viability assay, normal cells; details: human, human skin fibroblasts (CCD25Sk);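 note: fibroblasts served as non-cancer comparison line for selectivity versus melanoma cells, MTT reduction read as absorbance at 570 nm after 2 h dye exposure, compounds in ≤0.1% DMSO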
[7] = tested on: caspases, PARP, phospho-RSK in A375 cells; assay: Western immunoblot of apoptosis mediators and RSK, A375; assay type: cell-based, human; details: A375, 48 h, Western blot
Method: Floating cells were harvested by centrifugation of the conditioned media (300× g, 5 min). Cell pellet and adherent cells were lysed in a cell lysis buffer supplemented with inhibitors of proteases and phosphatases. The cell lysate was sonicated (2 × 10 s) on ice with an ultrasonic homogenizer (UP200S, Hielscher Ultrasonics GmbH, Teltow, Germany) and centrifuged for 10 min at 10,000× g. The supernatant was collected and stored in a freezer at −70 °C. Protein concentrations in the cell supernatants were determined using a Lowry assay. Obtained proteins were dissolved on SDS-PAGE gels (7.5%, 10%, or 12%) using the Mini-Protean Tetra system. The proteins were transferred to nitrocellulose membranes using the Mini Trans-Blot Cell wet blotting system. The 5% skim milk was used to block membranes. Then, membranes were probed for 24 h at 4 °C with the following antibodies: anti-phospho-RSK, anti-RSK, anti-PARP, anti-cleaved PARP, anti-caspase-8, anti-caspase-9, anti-caspase-7, anti-caspase-3, and anti-actin. Membranes were incubated with an ECL-HRP (enhanced chemiluminescence-horseradish peroxidase) substrate, and the signal was spotted using the BioSpectrum Imaging System and VisionWorks LS software 7.0 (Ultra-Violet Products, Ltd., San Gabriel, CA, USA). The intensity of the bands was quantified by densitometric analysis using UVIBand software, version 15.08d (Uvitec Ltd., Cambridge, UK).

[8] = tested on: caspases, PARP, phospho-RSK in C32 cells; assay: Western immunoblot of apoptosis mediators and RSK, C32; assay type: cell-based, human; details: C32, 48 h, Western blot; for cleaved PARP and caspase-9: test concentration or dose not given here
[9] = tested on: human skin fibroblasts (CCD25Sk); assay: Neutral red uptake (NRU) assay, normal cells; details: read-out: IC50, cytotoxic activity, NRU assay; Normal cells (fibroblasts), 48 h
Method: as §1

C32 melanoma cells [10] = assay: [3H]-thymidine incorporation (DNA biosynthesis), C32; assay type: cell-based, human; details: read-out: IC50, effect on DNA biosynthesis ([3H]-thymidine incorporation)
Method: (§2) The inhibition of DNA biosynthesis was evaluated using [^3H]-thymidine incorporation into the DNA of melanoma cells (C32, A375) and fibroblasts treated with the studied compounds [21]. The cells were briefly seeded in 24-well plates (1 × 10^5 cells per well) and allowed to adhere for 24 h. […] After incubation for 24, 48, and 72 h, the cells were rinsed three times with PBS. Then, cells were lysed in 1 mL of 0.1 M NaOH containing 1% SDS. The cell lysate was moved into scintillation vials containing scintillation liquid, and the radioactivity of the samples was measured using a liquid scintillation analyzer (Perkin-Elmer, Waltham, MA, USA).

A375 melanoma cells [11] = assay: [3H]-thymidine incorporation (DNA biosynthesis), A375; assay type: cell-based, human; details: read-out: IC50, effect on DNA biosynthesis ([3H]-thymidine incorporation)
Method: as §2

[12] = tested on: human skin fibroblasts (CCD25Sk); assay: [3H]-thymidine incorporation (DNA biosynthesis), normal cells; assay type: cell-based; details: read-out: IC50, effect on DNA biosynthesis ([3H]-thymidine incorporation)
Method: as §2

[13] = Homo sapiens, C32, 24 h, read-out: IC50, cytotoxic activity, NRU assay, C32, 24 h
[14] = Homo sapiens, C32, 48 h, read-out: IC50, cytotoxic activity, NRU assay, C32, 48 h
[15] = Homo sapiens, C32, 72 h, read-out: IC50, cytotoxic activity, NRU assay, C32, 72 h
[16] = A-375, 24 h, read-out: IC50, cytotoxic activity, MTT test, A375, 24 h
[17] = A-375, 48 h, read-out: IC50, cytotoxic activity, MTT test, A375, 48 h
[18] = A-375, 72 h, read-out: IC50, cytotoxic activity, MTT test, A375, 72 h

Compound | IC50 at 24 h (in vitro) | IC50 at 48 h (in vitro) | IC50 at 72 h (in vitro) | IC50 at 24 h [1] | IC50 at 48 h [1] | IC50 at 72 h [1] | IC50 (C32 melanoma cells [2]; C32, 24 h) | IC50 (C32 melanoma cells [2]; C32, 48 h) | IC50 (C32 melanoma cells [2]; C32, 72 h) | IC50 (A375 melanoma cells [3]; Homo sapiens, A-375, 24 h) | IC50 (A375 melanoma cells [3]; Homo sapiens, A-375, 48 h) | IC50 (A375 melanoma cells [3]; Homo sapiens, A-375, 72 h) | IC50 (C32 melanoma cells [4]; [13]) | IC50 (C32 melanoma cells [4]; [14]) | IC50 (C32 melanoma cells [4]; [15]) | IC50 (A375 melanoma cells [5]; [16]) | IC50 (A375 melanoma cells [5]; [17]) | IC50 (A375 melanoma cells [5]; [18]) | IC50 at 24 h [6] | IC50 at 48 h [6] | also measured
O=c1cc(-c2ccc(O)c(O)c2)oc2cc(OC3OC(CO)C(O)C(O)C3O)cc(O)c12 (centres unmarked) [Compound 7, luteolin 7-O-glucoside] | > 200 µM | > 200 µM | > 200 µM | > 200 µM | 100 to 200 µM | 100 to 200 µM | > 200 µM | 60.5 ± 4.6 µM | 40.7 ± 2.9 µM | > 200 µM | 56.7 ± 3.8 µM | 41.5 ± 3.3 µM | > 200 µM | 29.6 ± 2 µM | 23 ± 2.1 µM | > 200 µM | > 200 µM | 37.1 ± 3 µM |  |  | 
O=C(O)C1OC(Oc2cc(O)c3c(=O)cc(-c4ccc(O)c(O)c4)oc3c2)C(O)C(O)C1O (centres unmarked) [Compound 8, luteolin 7-O-glucuronide] | > 200 µM | > 200 µM | > 200 µM | > 200 µM | > 200 µM | > 200 µM | > 200 µM | > 200 µM | > 200 µM | > 200 µM | > 200 µM | > 200 µM | > 200 µM | > 200 µM | > 200 µM | > 200 µM | > 200 µM | > 200 µM |  |  | 
O=c1cc(-c2ccccc2)oc2cc(O)cc(O)c12 [Compound 14, chrysin] | > 200 µM | > 200 µM | 71.2 ± 4.5 µM | 100 to 200 µM | 65.7 ± 4.2 µM | 76.3 ± 4.7 µM | 100 to 200 µM | 96.4 ± 7 µM | 58.9 ± 4.5 µM | 52.4 ± 3.5 µM | 34.5 ± 2.3 µM | 33.1 ± 2.8 µM | 89.2 ± 7.8 µM | 44.7 ± 3.9 µM | 25.6 ± 2.4 µM | 100 to 200 µM | 66.4 ± 4.5 µM | 34.4 ± 2.8 µM |  |  | 
O=C(O)C1OC(Oc2c(-c3ccc(O)cc3)oc3cc(O)cc(O)c3c2=O)C(O)C(O)C1O (centres unmarked) [Compound 21, kaempferol 3-O-glucuronide] | > 200 µM | > 200 µM | > 200 µM | > 200 µM | > 200 µM | > 200 µM | > 200 µM | > 200 µM | > 200 µM | > 200 µM | > 200 µM | > 200 µM | > 200 µM | > 200 µM | > 200 µM | > 200 µM | > 200 µM | > 200 µM |  |  | 
COc1ccc(-c2oc3c(CC=C(C)C)c(O[C@@H]4O[C@H](CO)[C@@H](O)[C@H](O)[C@H]4O)cc(O)c3c(=O)c2O[C@@H]2O[C@@H](C)[C@H](O)[C@@H](O)[C@H]2O)cc1 [Compound 23, icariin] | > 200 µM | > 200 µM | > 200 µM | > 200 µM | > 200 µM | > 200 µM | > 200 µM | > 200 µM | > 200 µM | > 200 µM | > 200 µM | > 200 µM | > 200 µM | > 200 µM | > 200 µM | > 200 µM | > 200 µM | > 200 µM |  |  | 
O=c1c(O)c(-c2cc(O)c(O)c(O)c2)oc2cc(O)cc(O)c12 [Compound 30, myricetin] | > 200 µM | > 200 µM | > 200 µM | > 200 µM | > 200 µM | > 200 µM | > 200 µM | > 200 µM | > 200 µM | > 200 µM | > 200 µM | > 200 µM | > 200 µM | > 200 µM | > 200 µM | > 200 µM | > 200 µM | 75.3 ± 4.8 µM |  |  | 
O=c1c(O)c(-c2cc(O)c(O)c(O)c2)oc2cc(O)ccc12 [Compound 32, robinetin] |  |  |  | > 200 µM | > 200 µM | > 200 µM | > 200 µM | > 200 µM | > 200 µM | > 200 µM | > 200 µM | > 200 µM | > 200 µM | > 200 µM | > 200 µM | > 200 µM | > 200 µM | 100 to 200 µM | > 200 µM | > 200 µM | IC50 at 72 h [6]: > 200 µM
COc1ccc([C@@H]2CC(=O)c3c(O)cc(O)cc3O2)cc1O [Compound 33, hesperetin] | > 200 µM | > 200 µM | > 200 µM | > 200 µM | > 200 µM | 100 to 200 µM | > 200 µM | 100 to 200 µM | 76.5 ± 6.3 µM | 100 to 200 µM | 100 to 200 µM | 100 to 200 µM | 69 ± 5.1 µM | 58.3 ± 5.6 µM | 53.7 ± 4 µM | 100 to 200 µM | 100 to 200 µM | 74.5 ± 6.4 µM |  |  | 
COc1ccc(C2CC(=O)c3c(O)cc(OC4OC(COC5OC(C)C(O)C(O)C5O)C(O)C(O)C4O)cc3O2)cc1O (centres unmarked) [Compound 34, hesperetin 7-O-rutinoside] |  |  |  | > 200 µM | > 200 µM | > 200 µM | > 200 µM | > 200 µM | > 200 µM | > 200 µM | > 200 µM | > 200 µM | > 200 µM | > 200 µM | > 200 µM | > 200 µM | > 200 µM | > 200 µM | > 200 µM | > 200 µM | IC50 at 72 h [6]: > 200 µM
COc1ccc(C2CC(=O)c3c(O)cc(OC4OC(CO)C(O)C(O)C4OC4OC(C)C(O)C(O)C4O)cc3O2)cc1O (centres unmarked) [Compound 35, hesperetin 7-O-neohesperidoside] |  |  |  | > 200 µM | > 200 µM | > 200 µM | > 200 µM | > 200 µM | > 200 µM | > 200 µM | > 200 µM | > 200 µM | > 200 µM | > 200 µM | > 200 µM | > 200 µM | > 200 µM | > 200 µM | > 200 µM | > 200 µM | IC50 at 72 h [6]: > 200 µM
O=c1c(-c2ccc(O)cc2)coc2cc(O)ccc12 [Compound 36, daidzein] |  |  |  | > 200 µM | > 200 µM | > 200 µM | > 200 µM | > 200 µM | > 200 µM | > 200 µM | > 200 µM | > 200 µM | > 200 µM | > 200 µM | > 200 µM | > 200 µM | > 200 µM | > 200 µM | > 200 µM | > 200 µM | IC50 at 72 h [6]: > 200 µM
N.N.[Cl][Pt][Cl] [cPt, cisplatin, reference compound] |  |  |  |  |  |  |  |  |  |  |  |  |  |  |  |  |  |  |  |  | cleavage of initiator caspases, caspase-9 and caspase-8 [7]: cleavage of both initiator caspases; levels of the caspases-3 and -7 zymogens [7]: decreased levels; phosphorylation of the RSK protein [7]: impaired; cleaved PARP and caspase-9 [8]: generated cleaved PARP and caspase-9; phosphorylation of RSK [8]: inhibited; IC50 [9]: 47.5 ± 4.9 µM; IC50 (C32 melanoma cells [10]; C32, 24 h): 6.8 ± 0.4 µM; IC50 (C32 melanoma cells [10]; C32, 48 h): 5.7 ± 0.3 µM; IC50 (C32 melanoma cells [10]; C32, 72 h): 4.4 ± 0.4 µM; IC50 (A375 melanoma cells [11]; A375, 24 h): 3.8 ± 0.2 µM; IC50 (A375 melanoma cells [11]; A375, 48 h): 3.9 ± 0.5 µM; IC50 (A375 melanoma cells [11]; A375, 72 h): 3.4 ± 0.3 µM; IC50 (A375 melanoma cells [3]; A375, 72 h): 9.9 ± 1.1 µM; IC50 (C32 melanoma cells [4]; read-out: IC50, cytotoxic activity, NRU assay, C32, 72 h): 13.8 ± 1.5 µM; IC50 ([12]; 24 h): 7.1 ± 0.9 µM; IC50 ([12]; 48 h): 6.1 ± 0.5 µM; IC50 ([12]; 72 h): 6.1 ± 0.8 µM
